Source: EP4417607A1, “HETEROCYCLIC COMPOUND AS SOS1 INHIBITOR AND USES THEREOF” (Nanjing Zaiming Pharmaceutical Co., Ltd., priority 2021, dated 2023)

Legend:
H358 cells = assay: H358 cell proliferation inhibition (CellTiter-Glo luminescent cell viability assay); format: cell-based; conditions: 7 days
Description: The effect of the compounds of the present invention on H358 cell proliferation was assessed by CellTiter-Glo luminescent cell viability assay kit method.
H358 cells (ATCC, CRL-5807) were cultured in RPMI1640 (Hyclone, SH30256.01) complete medium containing 10% FBS (Gibco, 10100147) and 100 U/mL penicillin-streptomycin mixed solution (Gibco, 15140163). When the cells grew to 80-90%, the cells were digested, pipetted, and seeded in a 96-well plate (Corning, 4515) at 3000 cells/well (180 µL RPMI1640 complete medium), and then the 96-well plate was incubated overnight in an incubator at 37 °C with 5% CO2.
After incubation overnight, 20 µL of a diluted test compound was added to each well using a multi-channel pipette, and the 96-well plate was placed in an incubator at 37 °C with 5% CO2 for further culture. After 7 days, 100 µL of the supernatant was pipetted and discarded. 50 µL of CellTiter-Glo® 3D Cell Viability Assay liquid was added to each well. The plate was shaken at room temperature at 450 rpm for 30 min. After the cells were completely lysed, "Luminescence" on the microplate reader was selected for plate reading. In this experiment, the cell-free group (replaced with 1640 medium) was used as the 100% inhibition group, and the compound-free group in which the cell was added was used as the 0% inhibition group.
The inhibition percentage of H358 cell proliferation by the compounds of the present invention could be calculated by the following formula: [formula]
(§1) IC50 values of the compounds were calculated from 8 concentration points using XLfit (ID Business Solutions Ltd., UK) software by the following formula: Y = Bottom + (Top−Bottom)/(1+10^(∧)((logIC50−X)×slopefactor)) [formula]
Y is the inhibition percentage, X is the logarithmic value of the concentration of the test compound, Bottom is the minimum inhibition percentage, Top is the maximum inhibition percentage, and slope factor is the slope coefficient of the curve.

[1] = test system: p-ERK pathway in H358 cells; assay: p-ERK pathway inhibition in H358 cells (Advanced phospho-ERK (Thr202/Tyr204) cellular kit, HTRF); format: cell-based
Description: The effect of the compounds of the present invention on H358 cell p-ERK pathway was assessed by Advanced phospho-ERK (Thr202/Tyr204) cellular kit method.
The experimental procedures were summarized as follows: H358 cells (ATCC, CRL-5807) were cultured in RPMI1640 (ThermoFisher, A1049101) complete medium containing 10% FBS (Gibco, 10100147) and 100 U/mL penicillin-streptomycin mixed solution (Gibco, 15140163). When the coverage of the cells in the culture vessel reached 80-90%, the cells were pipetted and seeded in a 96-well plate (Corning, 3599) at 50000 cells/well (90 µL RPMI1640 complete medium), and the plate was left to stand for 5 min, cultured in an incubator at 37 °C with 5% CO2 for 6 h, replaced with a serum-free RPMI1640, and starved overnight.
After incubation overnight, 10 µL of a diluted test compound was added to each well using a multi-channel pipette, and the 96-well plate was cultured in an incubator at 37 °C with 5% CO2 for 1 h. The supernatant was poured. The cells were washed once with PBS. 50 µL of a lysis buffer (Advanced phospho-ERK (Thr202/Tyr204) cellular kit, 64AERPEH) was added to each well. The plate was shaken at room temperature at 450 rpm for 1 h. After the cells were completely lysed, 16 µL of the supernatant was added to a 384-well plate (PE, 6007299), mixed energy donor Eu and energy acceptor D2 (D2/Eu = 1:1) were added, and the plate was incubated at room temperature for 4 h. HTRF on the microplate reader was selected for plate reading, Ratio = Signal 665 nm/Signal 620 nm × 10^4. In this experiment, the cell-free group (replaced with 1640 medium) was used as the 100% inhibition group, and the compound-free group in which the cell was added was used as the 0% inhibition group.
The inhibition percentage of H358 cell p-ERK pathway by the compounds of the present invention could be calculated by the following formula: [formula]
as §1
Y is the inhibition percentage, X is the logarithmic value of the concentration of the test compound, Bottom is the minimum inhibition percentage, Top is the maximum inhibition percentage, and slope factor is the slope coefficient of the curve. The default fitted curve was used to fit the slope of the S-shaped curve to determine the IC50 value. Table 2. Results of p-ERK inhibition test by the compounds of the present invention

[2] = Homo sapiens, NCI-H358, 1 h compound incubation

| IC50 (H358 cells) | IC50 ([1]; 1 h compound incubation) | IC50 (H358 cells; Homo sapiens, NCI-H358, 168 h) | IC50 [1, 2] | Compound |
| --- | --- | --- | --- | --- |
| 105 nM | 40 nM | – | – | (R)-4-((1-(3-(difluoromethyl)-2-fluorophenyl)ethyl)amino)-6-(1-(fluoromethyl)cyclopropyl)-8-(2-hydroxyprop-2-yl)-2-methylpyrido[4,3-d]pyrimidine-7(6H)-one [Example 144] |
| – | – | 36.2 nM | 31 nM | [2H]C1([2H])COC[C@H](C)N1c1c(=O)n(C2(CF)CC2)cc2c(N[C@H](C)c3cccc(C(F)F)c3F)nc(C)nc12 [Example 175] |
| – | – | 80 nM | 112 nM | Cc1nc(N[C@H](C)c2cccc(C(F)(F)C(C)(C)C#N)c2)c2cn(C3(CF)CC3)c(=O)cc2n1 [Example 6, (R)-3,3-difluoro-3-(3-(1-((6-(1-(fluoromethyl)cyclopropyl)-2-methyl-7-oxo-6,7-dihydropyrido[4,3-d]pyrimidin-4-yl)amino)ethyl)phenyl)-2,2-dimethylpropanenitrile] |
| – | – | 35.6 nM | 59.8 nM | [2H][C@](C)(Nc1nc(C)nc2c(N3CCC(S(C)(=O)=O)CC3)c(=O)n(C3(CF)CC3)cc12)c1cccc(C(F)F)c1F [Example 125, (R)-4-((1-(3-(difluoromethyl)-2-fluorophenyl)ethyl-1-d)amino)-6-(1-(fluoromethyl)cyclopropyl)-2-methyl-8-(4-(methylsulfonyl)piperidin-1-yl)pyrido[4,3-d]pyrimidine-7(6H)-one] |
| – | – | 148 nM | 133 nM | Cc1nc(N[C@H](C)c2cccc(C#N)c2C)c2cn(N3CCOCC3)c(=O)c(OC3(C)CC3)c2n1 [Example 91, (R)-2-methyl-3-(1-((2-methyl-8-(1-methylcyclopropoxy)-6-morpholinyl-7-oxo-6,7-dihydropyrido[4,3-d]pyrimidin-4-yl)amino)ethyl)benzonitrile] |
| – | – | 64.8 nM | 69.1 nM | Cc1nc(N[C@H](C)c2cccc(C(F)F)c2F)c2cn(C3(CF)CC3)c(=O)c(OC(C)C)c2n1 [Example 36, (R)-4-((1-(3-(difluoromethyl)-2-fluorophenyl)ethyl)amino)-6-(1-(fluoromethyl)cyclopropyl)-8-isopropoxy-2-methylpyrido[4,3-d]pyrimidine-7(6H)-one] |
| – | – | 35.7 nM | 107 nM | COc1c(=O)n(N2CCOCC2)cc2c(N[C@H](C)c3cccc(S(F)(F)(F)(F)F)c3)nc(C)nc12 [Example 25] |
| – | – | 80.8 nM | 49.8 nM | Cc1nc(N[C@H](C)c2cccc(C(F)F)c2F)c2cn(N3CCOCC3)c(=O)c(-c3cnc4c(cnn4C)c3)c2n1 [Example 100] |
| – | – | 115 nM | 63.1 nM | Cc1nc(N[C@H](C)c2cccc(C(F)F)c2F)c2cn(N3CCOCC3)c(=O)c(-c3cnn4c3COCC4)c2n1 [Example 138, (R)-4-((1-(3-(difluoromethyl)-2-fluorophenyl)ethyl)amino)-8-(6,7-dihydro-4H-pyrazolo[5,1-c][1,4]oxazin-3-yl)-2-methyl-6-morpholinylpyrido[4,3-d]pyrimidine-7(6H)-one] |
| – | – | 134 nM | – | Cc1nc(N[C@H](C)c2cccc(C#N)c2C)c2cn(N3CCOCC3)c(=O)c(-c3ccc(N4CCCC4)nc3)c2n1 [Example 89, (R)-2-methyl-3-(1-((2-methyl-6-morpholinyl-7-oxo-8-(6-(pyrrolidin-1-yl)pyridin-3-yl)-6,7-dihydropyrido[4,3-d]pyrimidin-4-yl)amino)ethyl)benzonitrile] |
| – | – | 74.7 nM | – | COc1c(=O)n(C2(C)CCN(C(C)=O)C2)cc2c(N[C@H](C)c3cccc(C(F)F)c3F)nc(C)nc12 (stereo partly drawn) [Example 7, 6-(1-acetyl-3-methylpyrrolidin-3-yl)-4-(((R)-1-(3-(difluoromethyl)-2-fluorophenyl)ethyl)amino)-8-methoxy-2-methylpyrido[4,3-d]pyrimidine-7(6H)-one] |
| – | – | 136 nM | – | Cc1nc(N[C@H](C)c2cccc(C(F)F)c2F)c2cn(N3CCOCC3)c(=O)c(Oc3ccnc(C#N)c3)c2n1 [Example 118, (R)-4-((4-((1-(3-(difluoromethyl)-2-fluorophenyl)ethyl)amino)-2-methyl-6-morpholino-7-oxo-6,7-dihydropyrido[4,3-d]pyrimidin-8-yl)oxy)pyridinecarbonitrile] |
| – | – | 162 nM | – | Cc1nc(N[C@H](C)c2cccc(C(F)F)c2F)c2cn(C3(CF)CC3)c(=O)c(N)c2n1 [Example 59, (R)-8-amino-4-((1-(3-(difluoromethyl)-2-fluorophenyl)ethyl)amino)-6-(1-(fluoromethyl)cyclopropyl)-2-methylpyrido[4,3-d]pyrimidine-7(6H)-one] |
| – | – | 116 nM | – | Cc1nc(N[C@H](C)c2cccc(C(F)F)c2F)c2cn(C3(CF)CC3)c(=O)c(N3CCC4(COC4)C3)c2n1 [Example 154] |
| – | – | 162 nM | – | Cc1nc(N[C@H](C)c2cccc(C(F)F)c2F)c2cn(C3(CF)CC3)c(=O)c(Oc3cnn(C)c3)c2n1 [Example 60, (R)-4-((1-(3-(difluoromethyl)-2-fluorophenyl)ethyl)amino)-6-(1-(fluoromethyl)cyclopropyl)-2-methyl-8-((1-methyl-1H-pyrazol-4-yl)oxy)pyrido[4,3-d)pyrimidine-7(6H)-one] |
| – | – | 118 nM | – | Cc1nc(N[C@H](C)c2cccc(C#N)c2C)c2cn(C3(CF)CC3)c(=O)c(-c3ccc(C#N)nc3)c2n1 [Example 67, (R)-5-(4-((1-(3-cyano-2-methylphenyl)ethyl)amino)-6-(1-(fluoromethyl)cyclopropyl)-2-methyl-7-oxo-6,7-dihydropyrido[4,3-d]pyrimidin-8-yl)pyridinecarbonitrile] |
| – | – | 154 nM | – | Cc1nc(N[C@H](C)c2cccc(C(F)F)c2F)c2cn(C3(CF)CC3)c(=O)c(OCC3CC3)c2n1 [Example 35, (R)-8-(cyclopropylmethoxy)-4-((1-(3-(difluoromethyl)-2-fluorophenyl)ethyl)amino)-6-(1-(fluoromethyl)cyclopropyl)-2-methylpyrido[4,3-d]pyrimidine-7(6H)-one] |
| 41.6 nM | – | – | – | (R)-4-((1-(3-(difluoromethyl)-2-fluorophenyl)ethyl)amino)-8-ethoxy-6-(1-(fluoromethyl)cyclopropyl)-2-methylpyrido[4,3-d]pyrimidine-7(6H)-one [Example 10] |
| – | – | 84.7 nM | – | Cc1nc(N[C@H](C)c2cccc(C#N)c2C)c2cn(C3(CF)CC3)c(=O)c(N3CCN(C)CC3)c2n1 [Example 74, (R)-3-(1-((6-(1-(fluoromethyl)cyclopropyl)-2-methyl-8-(4-methylpiperazin-1-yl)-7-oxo-6,7-dihydropyrido[4,3-d]pyrimidin-4-yl)amino)ethyl)-2-methylbenzonitrile] |

| Compound | IC50 (H358 cells) | IC50 ([1]; 1 h compound incubation) | IC50 (H358 cells; Homo sapiens, NCI-H358, 168 h) | IC50 [1, 2] |
| --- | --- | --- | --- | --- |
| Cc1nc(N[C@H](C)c2cccc(C(F)F)c2F)c2cn(C3(CF)CC3)c(=O)c(N3CC4CC(C3)O4)c2n1 [Example 174] | – | – | 36.2 nM | 20.4 nM |
| Cc1nc(N[C@H](C)c2cccc(C(F)F)c2F)c2cn(C3(CF)CC3)c(=O)c(OC(=O)N3CCN(C)CC3)c2n1 [Example 86, (R)-4-((1-(3-(difluoromethyl)-2-fluorophenyl)ethyl)amino)-6-(1-(fluoromethyl)cyclopropyl)-2-methyl-7-oxo-6,7-dihydropyrido[4,3-d]pyrimidin-8-yl-4-methylpiperazine-1-carboxylate] | – | – | 121 nM | – |
